Experiments:
[1] = tested on: Arabidopsis thaliana plants (col-0); experiment: Discontinuous chlorophyll fluorescence imaging of ΦII with red actinic light after coronatine spraying; type: in vivo; settings: 5 μM sprayed, monochromatic (red) actinic light, 1, 4, 8 and 24 hours after treatment
Experimental: Arabidopsis thaliana plants (col-0) were grown on soil at 22° C. day temperature and 18° C. night temperature, 50% humidity and an intensity of μmol photons m^−2 s^−1 with an 16:8 day:night cycle. Chlorophyll a fluorescence images of steady state (FS) and the fluorescence maximum at steady state (FM′) were collected at growth light intensity and in the absence or presence of saturating illumination, respectively. These images were used to generate images of ΦII, a measure of photosynthetic efficiency on the day of and after treatment (by spraying) with 5 μM coronatine (cor) or water (control). Coronatine is a compound produced by a bacterial plant pathogen. As a chemical analog of jasmonic acid, it elicits a stress response, which includes differential induction and repression of classes of photosynthesis associated genes (PAGs). […] For discontinuous imaging, plants were maintained in the growth chamber where they were treated and transferred to and from the fluorescence imager for measurements. For in situ imaging, the plants were allowed to readjust after transfer to the new chamber with white LED lighting for at least 24 hours prior to treatment and were kept in the chamber for the duration of experiment.

[2] = tested on: Arabidopsis thaliana plants (col-0); experiment: Continuous in situ chlorophyll fluorescence imaging of ΦII with white actinic LED after coronatine spraying; type: in vivo; settings: 5 μM sprayed
Experimental: Arabidopsis thaliana plants (col-0) were grown on soil at 22° C. day temperature and 18° C. night temperature, 50% humidity and an intensity of μmol photons m^−2 s^−1 with an 16:8 day:night cycle. Chlorophyll a fluorescence images of steady state (FS) and the fluorescence maximum at steady state (FM′) were collected at growth light intensity and in the absence or presence of saturating illumination, respectively. These images were used to generate images of ΦII, a measure of photosynthetic efficiency on the day of and after treatment (by spraying) with 5 μM coronatine (cor) or water (control). Coronatine is a compound produced by a bacterial plant pathogen. As a chemical analog of jasmonic acid, it elicits a stress response, which includes differential induction and repression of classes of photosynthesis associated genes (PAGs). To determine if there were immediate and/or sustained effects on photosynthesis, imaging was performed discontinuously in an imager that used monochromatic (red) actinic light or continuously in situ in a growth chamber outfitted with a white actinic LED imaging system. For discontinuous imaging, plants were maintained in the growth chamber where they were treated and transferred to and from the fluorescence imager for measurements. For in situ imaging, the plants were allowed to readjust after transfer to the new chamber with white LED lighting for at least 24 hours prior to treatment and were kept in the chamber for the duration of experiment.
Imaging in situ with white LED actinic illumination minimized the stress of moving a plant from its growth environment to the instrument and with automated image capture facilitated collection of data at higher time resolution (FIG. 10). […] The effect is also heterogeneous, more strongly observed in some leaves or not occurring at all in other (younger) leaves.

CC[C@H]1C=C(C(=O)N[C@@]2(C(=O)O)C[C@@H]2CC)[C@H]2CCC(=O)[C@H]2C1 [coronatine]
ΦII (photosynthetic efficiency), treated vs untreated plants [1]: no differences between treated and untreated plants | photosynthetic efficiency (ΦII) effect ([2]; in situ imaging, second day after treatment (more recent studies, not shown)): the effect was not observed | photosynthetic efficiency (ΦII) ([2]; white LED in situ imaging, early morning on the day after treatment (21 hours)): large decrease in photosynthetic efficiency | photosynthetic efficiency (ΦII) effect ([2]; white LED in situ imaging, mid-morning on the day after treatment (25 hours)): almost completely disappears

Source: patent publication US9429521B2, “Plant phenometrics systems and methods and devices related thereto” (BOARD OF TRUSTEES OF MICHIGAN STATE UNIVERSITY, priority 2012, dated 2016)
